Reference: ChEMBL document CHEMBL5260850, “The exploration of aza-quinolines as hematopoietic prostaglandin D synthase (H-PGDS) inhibitors with low brain exposure” (Bioorg Med Chem, 2020)
Calls of active or inactive are those of the source. No cut-off for these calls is given here.

How the values were obtained:
[1] = Cmax in dog at 75 mg/kg/day, po QD for 4 days; format: ADME, organism-based, Canis lupus familiaris; parameters: dose 75 mg/kg/day, time 4 day, route po; conditions: in vivo
[2] = CNS toxicity in Wistar Han rat at 10 to 100 mg/kg/day, po QD for 7 days; format: organism-based; conditions: in vivo, 168 h, dose 10-100 mg/kg/day, time 7 day
[3] = Toxicity in Wistar Han rat assessed as morphological changes in kidney at 30 mg/kg/day, po administered QD for 7 days by microscopic analysis; format: organism-based; conditions: in vivo, 168 h, time 7 day
[4] = Terminal half life in dog at 0.5 mg/kg, iv; format: ADME, organism-based, Canis lupus familiaris; conditions: in vivo, read-out: beta t1/2 (converted)
[5] = Cmax in Wistar Han rat at 30 mg/kg/day, po QD for 7 days; format: ADME, organism-based; parameters: time 7 day, dose 30 mg/kg/day, route po; conditions: in vivo
[6] = AUC in Wistar Han rat at 10 mg/kg/day, po QD for 7 days; format: ADME, organism-based; parameters: dose 10 mg/kg/day, time 7 day, route po; conditions: in vivo
[7] = Toxicity in dog assessed as decreased cortical lymphoid cellularity in thymus at 75 mg/kg/day, po QD for 4 days by microscopic analysis; format: organism-based, Canis lupus familiaris; conditions: in vivo, 96 h, time 4 day
[8] = Clearance in mouse at 1 mg/kg, iv; format: ADME, organism-based; conditions: in vivo
[9] = target: Cannabinoid receptor 1 (Homo sapiens) (UniProt P21554); conditions: dose <= 10000.0 nM
Chain of Cannabinoid receptor 1 (Homo sapiens) (P21554 whole entry): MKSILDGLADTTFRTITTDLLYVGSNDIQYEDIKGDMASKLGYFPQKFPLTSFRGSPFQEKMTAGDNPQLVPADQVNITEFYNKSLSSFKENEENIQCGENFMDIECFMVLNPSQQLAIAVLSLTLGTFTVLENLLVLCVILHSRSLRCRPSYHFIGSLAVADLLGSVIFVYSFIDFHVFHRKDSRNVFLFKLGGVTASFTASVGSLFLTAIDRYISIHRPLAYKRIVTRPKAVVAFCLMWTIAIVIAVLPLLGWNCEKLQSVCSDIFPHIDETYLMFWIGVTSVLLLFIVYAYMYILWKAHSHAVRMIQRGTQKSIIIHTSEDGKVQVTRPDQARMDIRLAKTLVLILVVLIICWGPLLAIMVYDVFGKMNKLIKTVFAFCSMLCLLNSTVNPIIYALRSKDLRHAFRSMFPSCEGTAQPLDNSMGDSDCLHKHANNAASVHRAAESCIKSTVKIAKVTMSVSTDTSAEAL
Description: Inhibition of CB1 receptor (unknown origin) upto 10000 nM

[10] = target: Prostaglandin-H2 D-isomerase (Homo sapiens, UniProt P41222); experiment: Inhibition of L-PGDS (unknown origin)
Chain of Prostaglandin-H2 D-isomerase (P41222 whole entry): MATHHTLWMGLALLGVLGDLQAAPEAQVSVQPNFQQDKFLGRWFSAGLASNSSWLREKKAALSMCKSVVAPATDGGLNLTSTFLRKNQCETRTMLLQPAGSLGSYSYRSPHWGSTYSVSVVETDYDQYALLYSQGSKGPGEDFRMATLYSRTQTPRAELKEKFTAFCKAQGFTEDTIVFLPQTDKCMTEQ

[11] = Free AUC (0 to last) in mdx mouse administered orally 10 mins prior to unilateral eccentric contraction and QD for 43 days thereafter; format: ADME; conditions: in vivo, po, 1032 h, time 43 day
[12] = target: 5-hydroxytryptamine receptor 2B (Homo sapiens) (UniProt P41595); conditions: dose <= 10000.0 nM
Chain of 5-hydroxytryptamine receptor 2B (Homo sapiens) (P41595 whole entry): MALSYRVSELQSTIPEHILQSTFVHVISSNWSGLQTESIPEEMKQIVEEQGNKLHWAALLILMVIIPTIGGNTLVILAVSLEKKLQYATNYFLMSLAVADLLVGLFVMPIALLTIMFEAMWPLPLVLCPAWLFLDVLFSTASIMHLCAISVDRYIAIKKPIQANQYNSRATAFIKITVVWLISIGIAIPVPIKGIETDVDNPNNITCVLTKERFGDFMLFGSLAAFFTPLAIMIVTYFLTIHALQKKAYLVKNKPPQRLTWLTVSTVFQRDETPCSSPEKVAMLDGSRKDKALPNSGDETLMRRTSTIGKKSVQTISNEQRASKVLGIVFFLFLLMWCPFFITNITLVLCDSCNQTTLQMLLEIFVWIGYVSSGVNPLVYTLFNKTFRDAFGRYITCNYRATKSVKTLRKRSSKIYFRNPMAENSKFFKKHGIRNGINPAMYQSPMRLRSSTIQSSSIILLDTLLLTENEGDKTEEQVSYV
Description: Inhibition of 5-HT2B receptor (unknown origin) upto 10000 nM

[13] = Apparent permeability, Papp of the compound at pH 7.4 incubated for 3 hrs by AMP based liquid chromatography; format: ADME; conditions: not told
[14] = Clearance in dog at 0.5 mg/kg, iv; format: ADME, organism-based, Canis lupus familiaris; conditions: in vivo
Cytochrome P450 3A4 = Cytochrome P450 3A4 (Homo sapiens, UniProt P08684); experiment: Inhibition of CYP3A4 (unknown origin); format: ADME
Chain of Cytochrome P450 3A4 (P08684 whole entry): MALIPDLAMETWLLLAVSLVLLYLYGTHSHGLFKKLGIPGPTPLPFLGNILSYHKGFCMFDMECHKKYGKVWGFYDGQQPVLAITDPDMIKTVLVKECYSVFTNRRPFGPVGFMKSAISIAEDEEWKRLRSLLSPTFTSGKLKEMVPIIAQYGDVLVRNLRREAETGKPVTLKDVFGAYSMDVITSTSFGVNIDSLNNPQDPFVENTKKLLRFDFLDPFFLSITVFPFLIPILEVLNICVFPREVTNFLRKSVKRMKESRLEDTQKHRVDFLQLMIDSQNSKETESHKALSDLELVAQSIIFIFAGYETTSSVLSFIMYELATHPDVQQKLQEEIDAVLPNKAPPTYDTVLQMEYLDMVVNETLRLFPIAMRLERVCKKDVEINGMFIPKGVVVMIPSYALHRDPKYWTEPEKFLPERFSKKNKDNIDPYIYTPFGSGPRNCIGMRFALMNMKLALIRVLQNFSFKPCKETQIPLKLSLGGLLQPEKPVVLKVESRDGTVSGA

[15] = target: 5-hydroxytryptamine receptor 1B (Homo sapiens) (UniProt P28222); conditions: dose <= 10000.0 nM
Chain of 5-hydroxytryptamine receptor 1B (Homo sapiens) (P28222 whole entry): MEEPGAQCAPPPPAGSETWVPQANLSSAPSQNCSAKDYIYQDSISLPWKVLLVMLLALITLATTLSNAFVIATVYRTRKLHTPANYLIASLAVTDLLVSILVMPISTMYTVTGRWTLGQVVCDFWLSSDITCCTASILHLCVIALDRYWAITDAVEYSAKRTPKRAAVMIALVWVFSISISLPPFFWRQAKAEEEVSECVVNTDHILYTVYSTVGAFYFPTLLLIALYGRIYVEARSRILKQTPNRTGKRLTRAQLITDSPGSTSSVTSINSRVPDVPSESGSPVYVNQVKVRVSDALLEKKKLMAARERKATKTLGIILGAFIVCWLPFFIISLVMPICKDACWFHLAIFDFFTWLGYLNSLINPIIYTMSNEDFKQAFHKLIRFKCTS
Description: Inhibition of 5-HT1B receptor (unknown origin) upto 10000 nM

[16] = Toxicity in Wistar Han rat assessed as cortical hypertrophy in adrenal gland at 100 mg/kg/day, po administered QD for 7 days by microscopic analysis; format: organism-based; conditions: in vivo, 168 h, time 7 day
[17] = target: Nuclear receptor subfamily 1 group I member 2 (Homo sapiens, UniProt O75469); experiment: Inhibition of PXR (unknown origin) upto 10000 nM; conditions: 10 µM
Chain of Nuclear receptor subfamily 1 group I member 2 (O75469 whole entry): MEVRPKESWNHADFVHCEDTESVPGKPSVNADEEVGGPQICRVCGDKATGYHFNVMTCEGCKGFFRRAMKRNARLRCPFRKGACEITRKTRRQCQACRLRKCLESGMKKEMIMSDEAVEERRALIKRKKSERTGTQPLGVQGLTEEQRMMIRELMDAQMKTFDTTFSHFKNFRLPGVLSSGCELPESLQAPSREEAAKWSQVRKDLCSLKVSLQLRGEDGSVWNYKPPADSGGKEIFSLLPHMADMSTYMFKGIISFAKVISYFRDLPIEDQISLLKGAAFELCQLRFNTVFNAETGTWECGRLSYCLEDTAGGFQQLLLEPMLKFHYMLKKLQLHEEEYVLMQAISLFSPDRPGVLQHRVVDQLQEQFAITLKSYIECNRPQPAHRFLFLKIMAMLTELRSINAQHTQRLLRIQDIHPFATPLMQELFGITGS

[18] = Toxicity in dog assessed as deterioration in clinical condition at 75 mg/kg/day, po QD for 4 days; format: organism-based, Canis lupus familiaris; conditions: in vivo, 96 h, time 4 day
[19] = target: Hematopoietic prostaglandin D synthase (Homo sapiens, UniProt O60760); experiment: Binding affinity to human H-PGDS expressed in Escherichia coli BL21 DE3 cells assessed as equilibrium dissociation constant by measuring changes in intrinsic tryptophan fluorescence in presence of glutathione by fluorescence based analysis
Chain of Hematopoietic prostaglandin D synthase (Homo sapiens, UniProt O60760) (O60760 whole entry): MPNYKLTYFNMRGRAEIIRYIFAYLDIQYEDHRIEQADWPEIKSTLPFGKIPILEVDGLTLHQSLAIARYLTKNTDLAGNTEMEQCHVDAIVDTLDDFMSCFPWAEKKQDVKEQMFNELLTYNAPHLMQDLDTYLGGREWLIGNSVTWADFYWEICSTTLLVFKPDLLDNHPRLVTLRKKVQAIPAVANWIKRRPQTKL

[20] = Clearance in rat at 0.4 mg/kg, iv; format: ADME, organism-based; conditions: in vivo
[21] = target: Potassium voltage-gated channel subfamily A member 5 (Homo sapiens) (UniProt P22460); conditions: dose <= 10000.0 nM
Description: Inhibition of Kv1.5 channel (unknown origin) upto 10000 nM

[22] = Toxicity in rat assessed as tolerance at 300 mg/kg, po administered as single dose; format: organism-based; conditions: in vivo
[23] = target: Alpha-1B adrenergic receptor (Homo sapiens) (UniProt P35368); conditions: dose <= 10000.0 nM
Description: Inhibition of alpha1B adrenergic receptor (unknown origin) upto 10000 nM

[24] = Cmax in dog at 30 mg/kg/day, po QD for 4 days; format: ADME, organism-based, Canis lupus familiaris; parameters: time 4 day, dose 30 mg/kg/day, route po; conditions: in vivo
[25] = Toxicity in dog assessed as organ morphological changes upto 30 mg/kg/day, po QD for 4 days by microscopic analysis; format: organism-based, Canis lupus familiaris; conditions: in vivo, 96 h, time 4 day
[26] = target: Sodium-dependent serotonin transporter (Homo sapiens) (UniProt P31645); conditions: dose <= 10000.0 nM
Chain of Sodium-dependent serotonin transporter (Homo sapiens) (P31645 whole entry, looked up): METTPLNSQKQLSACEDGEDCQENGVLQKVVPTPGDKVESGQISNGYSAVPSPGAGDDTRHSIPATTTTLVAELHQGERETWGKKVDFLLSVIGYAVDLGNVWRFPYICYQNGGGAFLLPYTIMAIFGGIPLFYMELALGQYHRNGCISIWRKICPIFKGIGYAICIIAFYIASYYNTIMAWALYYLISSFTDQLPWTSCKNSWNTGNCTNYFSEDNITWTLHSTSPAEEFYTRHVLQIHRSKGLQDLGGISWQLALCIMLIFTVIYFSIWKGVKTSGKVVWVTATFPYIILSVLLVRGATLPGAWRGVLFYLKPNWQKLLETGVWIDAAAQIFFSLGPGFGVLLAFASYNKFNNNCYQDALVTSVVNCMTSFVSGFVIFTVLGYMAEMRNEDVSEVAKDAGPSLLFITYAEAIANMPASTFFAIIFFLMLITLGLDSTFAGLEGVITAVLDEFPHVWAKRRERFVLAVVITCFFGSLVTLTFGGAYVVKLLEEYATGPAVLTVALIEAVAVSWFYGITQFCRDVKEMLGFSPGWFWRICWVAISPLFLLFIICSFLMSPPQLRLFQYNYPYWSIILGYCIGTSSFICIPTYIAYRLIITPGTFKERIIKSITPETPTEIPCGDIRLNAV
Description: Inhibition of SERT (unknown origin) upto 10000 nM

[27] = Volume of distribution at steady state in mouse at 1 mg/kg, iv; format: ADME, organism-based; conditions: in vivo, read-out: Vdss
[28] = target: Muscarinic acetylcholine receptor M1 (Homo sapiens) (UniProt P11229); conditions: dose <= 10000.0 nM
Chain of Muscarinic acetylcholine receptor M1 (Homo sapiens) (P11229 whole entry): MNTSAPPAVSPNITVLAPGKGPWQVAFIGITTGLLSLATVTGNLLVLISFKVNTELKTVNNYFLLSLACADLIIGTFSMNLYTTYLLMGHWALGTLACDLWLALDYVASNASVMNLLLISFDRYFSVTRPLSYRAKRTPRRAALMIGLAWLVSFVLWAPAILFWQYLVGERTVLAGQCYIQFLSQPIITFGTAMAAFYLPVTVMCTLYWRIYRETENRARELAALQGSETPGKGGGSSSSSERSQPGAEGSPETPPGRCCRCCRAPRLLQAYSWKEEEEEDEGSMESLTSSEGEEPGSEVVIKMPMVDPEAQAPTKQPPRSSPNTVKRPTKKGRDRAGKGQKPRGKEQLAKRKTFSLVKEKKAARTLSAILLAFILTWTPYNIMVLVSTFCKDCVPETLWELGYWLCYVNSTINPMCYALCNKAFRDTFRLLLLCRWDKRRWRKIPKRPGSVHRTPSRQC
Description: Inhibition of muscarinic M1 receptor (unknown origin) upto 10000 nM

[29] = Toxicity in dog assessed as discoloration in small intestine and oesophagus at 75 mg/kg/day, po QD for 4 days by macroscopic analysis; format: organism-based, Canis lupus familiaris; conditions: in vivo, 96 h, time 4 day
[30] = Cmax in mdx mouse administered orally 10 mins prior to unilateral eccentric contraction and QD for 43 days thereafter; format: ADME; parameters: time 43 day, route po; conditions: in vivo, po
[31] = target: Amine oxidase [flavin-containing] A (Homo sapiens, UniProt P21397); experiment: Inhibition of MAO-A (unknown origin) upto 10000 nM; conditions: 10 µM
Chain of Amine oxidase [flavin-containing] A (P21397 whole entry): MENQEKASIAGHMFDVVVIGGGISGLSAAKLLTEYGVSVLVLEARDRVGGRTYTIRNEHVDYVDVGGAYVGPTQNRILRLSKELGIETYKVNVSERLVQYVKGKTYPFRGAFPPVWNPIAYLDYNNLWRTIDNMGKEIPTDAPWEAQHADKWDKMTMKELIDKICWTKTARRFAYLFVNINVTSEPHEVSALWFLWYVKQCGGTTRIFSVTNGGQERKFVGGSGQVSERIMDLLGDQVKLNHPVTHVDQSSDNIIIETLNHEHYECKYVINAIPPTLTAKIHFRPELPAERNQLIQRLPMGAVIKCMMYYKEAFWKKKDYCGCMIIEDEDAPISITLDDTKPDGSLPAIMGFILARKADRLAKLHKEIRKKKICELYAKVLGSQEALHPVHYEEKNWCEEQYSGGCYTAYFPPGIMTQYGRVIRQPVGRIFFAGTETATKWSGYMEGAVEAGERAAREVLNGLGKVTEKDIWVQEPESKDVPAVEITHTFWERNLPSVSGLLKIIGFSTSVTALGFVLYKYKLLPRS

Mus musculus [32] = experiment: Anti-inflammatory activity against C57BL/6N mouse assessed as inhibition of muscle function loss by measuring functional recovery of injured limb muscles administered orally for 10 mins prior to unilateral eccentric contraction and QD for 16 days thereafter; conditions: 384 h, route po, time 16 day
[33] = AUC (0 to last) in eccentric contraction-induced muscle injury C57BL/6N mouse model administered orally for 10 mins prior to unilateral eccentric contraction and QD for 16 days thereafter; format: ADME; parameters: time 16 day, route po; conditions: in vivo, po
[34] = Toxicity in Wistar Han rat assessed as proximal tubular vacuolation and hyaline cast formation in kidney at 100 mg/kg/day, po administered QD for 7 days by microscopic analysis; format: organism-based; conditions: in vivo, 168 h, time 7 day
[35] = Free AUC (0 to last) in eccentric contraction-induced muscle injury C57BL/6N mouse model administered orally for 10 mins prior to unilateral eccentric contraction and QD for 16 days thereafter; format: ADME; conditions: in vivo, po, 384 h, time 16 day
[36] = target: T1, Hematopoietic prostaglandin D synthase (Rattus norvegicus, UniProt O35543); experiment: Inhibition of H-PGDS in rat RBL cells assessed as reduction in A23187-induced PGD2 production pretreated for 30 mins followed by A23187 addition for 30 mins by RapidFire Mass spectrometry; format: cell-based
T1 sequence (O35543 whole entry): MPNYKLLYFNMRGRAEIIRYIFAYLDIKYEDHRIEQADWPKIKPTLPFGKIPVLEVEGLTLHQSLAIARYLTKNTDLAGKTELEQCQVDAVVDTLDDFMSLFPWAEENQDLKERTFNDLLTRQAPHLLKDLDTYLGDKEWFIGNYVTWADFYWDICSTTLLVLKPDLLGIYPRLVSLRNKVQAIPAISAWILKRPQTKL

Mus musculus [37] = experiment: Anti-inflammatory activity against mdx mouse assessed as inhibition of muscle function loss by measuring functional recovery of injured limb muscles administered orally 10 mins prior to unilateral eccentric contraction and QD for 43 days thereafter; conditions: 1032 h, route po, time 43 day
[38] = target: Tyrosine-protein kinase Lck (Homo sapiens) (UniProt P06239); conditions: dose <= 10000.0 nM
Description: Inhibition of LCK (unknown origin) upto 10000 nM

[39] = target: Aurora kinase B (Homo sapiens) (UniProt Q96GD4); conditions: dose <= 10000.0 nM
Chain of Aurora kinase B (Homo sapiens) (Q96GD4 whole entry): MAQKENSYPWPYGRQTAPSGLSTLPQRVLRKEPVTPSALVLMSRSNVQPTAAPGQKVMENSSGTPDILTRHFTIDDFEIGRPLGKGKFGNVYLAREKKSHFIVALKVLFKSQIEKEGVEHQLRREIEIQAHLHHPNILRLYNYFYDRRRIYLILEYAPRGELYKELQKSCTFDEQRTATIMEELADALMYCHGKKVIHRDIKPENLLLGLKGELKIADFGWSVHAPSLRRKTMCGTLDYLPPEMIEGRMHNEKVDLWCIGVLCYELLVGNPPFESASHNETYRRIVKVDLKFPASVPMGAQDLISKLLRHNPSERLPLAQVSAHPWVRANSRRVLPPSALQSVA
Description: Inhibition of Aurora B kinase (unknown origin) upto 10000 nM

[40] = Toxicity in C57BL/6N mouse assessed as seizures administered orally for 10 mins prior to unilateral eccentric contraction and QD for 43 days thereafter; conditions: in vivo, po, 1032 h, time 43 day

Q: With CC(C)(O)[C@H]1CC[C@H](NC(=O)c2cnc3nc(C4CC4)ccc3c2)CC1 as the compound, how does the Cmax [1] read?
A: 210000 ng/mL

Q: What about the Activity [2] of the same compound?
A: Non-Toxic

Q: And the Activity [3]?
A: Non-Toxic

Q: And the half-life [4]?
A: 6.2 h

Q: What about the Cmax [5] of the same compound?
A: 24000 ng/mL

Q: And the AUC at 168 h [6]?
A: 120000 ng·h/mL

Q: And the Activity [7]?
A: Toxic

Q: What about the clearance [8] of the same compound?
A: 9 mL/min/kg

Q: And the inhibition [9]?
A: inactive

Q: And the IC50 [10]?
A: > 10000 nM

Q: What about the fAUClast [11] of the same compound?
A: 200 ng·h/mL

Q: And the inhibition [12]?
A: inactive

Q: What about the Papp at 3 h [13] of the same compound?
A: 4.4 ×10⁻⁶ cm/s

Q: What about the clearance [14] of the same compound?
A: 1.9 mL/min/kg

Q: What about the IC50 (Cytochrome P450 3A4) of the same compound?
A: > 100000 nM

Q: What about the inhibition [15] of the same compound?
A: inactive

Q: What about the Activity [16] of the same compound?
A: Toxic

Q: And the “inhibition (INH)” value [17]?
A: Not Active

Q: What about the Activity [18] of the same compound?
A: Toxic

Q: And the Kd [19]?
A: 0.24 nM

Q: And the clearance [20]?
A: 4.5 mL/min/kg

Q: What about the inhibition [21] of the same compound?
A: inactive

Q: And the Activity [22]?
A: Non-Toxic

Q: And the inhibition [23]?
A: inactive

Q: And the Cmax [24]?
A: 34000 ng/mL

Q: And the Activity [25]?
A: Non-Toxic

Q: And the inhibition [26]?
A: inactive

Q: What about the Vd [27] of the same compound?
A: 1.6 L/kg

Q: And the inhibition [28]?
A: inactive

Q: And the Activity [29]?
A: Toxic

Q: And the Cmax [30]?
A: 260 ng/mL

Q: And the “inhibition (INH)” value [31]?
A: Not Active

Q: What about the ED50 (Mus musculus [32]) of the same compound?
A: 3 mg/kg

Q: And the AUC(0-t) at 384 h [33]?
A: 5300 ng·h/mL

Q: What about the Activity [34] of the same compound?
A: Toxic

Q: What about the fAUClast [35] of the same compound?
A: 1200 ng·h/mL

Q: What about the EC50 [36] of the same compound?
A: 42 nM

Q: And the ED50 (Mus musculus [37])?
A: 1.1 mg/kg

Q: And the inhibition [38]?
A: inactive

Q: What about the inhibition [39] of the same compound?
A: inactive

Q: And the Activity [40]?
A: Non-Toxic
